Measurements reported in PubChem BioAssay AID493003 (Sanford-Burnham Center for Chemical Genomics, 2010).
The source made the active and inactive calls. How the calls were made is not given here.

Test system: S. cerevisiae tim10-1 mutant growth, luminescence
Assay: growth inhibitors of tim10-1 mutant yeast, dose response, luminescence, S. cerevisiae, uHTS hits (AID 493003);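 further: yeast growth measured after about 22 hours at 25 °C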

In order of rising IC50:
1. Cc1cccc(NC(=O)c2ccc([N+](=O)[O-])s2)n1  6.52 µM
2. O=C1CC(Sc2nnnn2-c2ccccc2)C(=O)N1c1cccc(Cl)c1 (configuration not stated)  9.03 µM
3. Cc1ccc(/C(N)=N/OC(=O)c2ccc3c(c2)OCO3)cc1  9.34 µM
4. CCOC(=O)c1ccc(NC(=O)CC2OCCN(CC)C2=O)cc1 (configuration not stated)  9.9 µM
5. Cc1ccc(CNC(=O)c2ccc(Cn3nc(C)c(Cl)c3C)o2)cc1  10.3 µM
6. O=C(NNC(=S)Nc1ccc(Cl)cc1)c1ccccc1OC(F)F  12 µM
7. CCCCCCC(=O)N(O)C1CC(=O)N(c2ccc(C)cc2)C1=O (configuration not stated)  12.2 µM
8. Cn1c(NCCCO)nc2c(c1=O)C1(CCCCC1)Cc1ccccc1-2  12.3 µM
9. CC(=O)c1ccc(NC(=S)NC(C)c2ccc(Cl)cc2Cl)cc1 (configuration not stated)  13.2 µM
10. Clc1ccc(CNc2nc(CN3CCOCC3)nc3scc(-c4ccccc4)c23)cc1  13.3 µM
11. COc1cc(OC)c(C(=O)O/N=C(\N)c2ccc(C)cc2)cc1OC  14.5 µM
12. COc1ccc(C(=O)O/N=C(\N)c2ccccc2Cl)cc1OC  15 µM
13. COc1cc(/C=C/c2ccc3cccc(O)c3n2)c(Br)cc1O  15.4 µM
14. COc1ccc(Cl)cc1NC(=S)NCc1ccco1  16.2 µM
15. CCC(CO)Nc1nc2ccc(Cl)cc2c2ccccc12 (configuration not stated)  17 µM
16. Cc1nonc1C1CCCN1C(=O)c1cc(COc2cccc(C(F)(F)F)c2)on1 (configuration not stated)  17.3 µM
17. COc1ccc2cc3cc(C(=O)Nc4ccccc4N4CCN(C)CC4)oc3nc2c1  17.5 µM
18. O=C1c2cccc(Cl)c2C(=O)c2c1cccc2N1CCCC1  18.4 µM
19. CN(CCCC(=O)O)c1ccc(N=Nc2ccc([N+](=O)[O-])cc2)cc1  19.5 µM
20. Cn1c(CSc2nnc(SCc3ccccc3)s2)nc2ccccc21  19.6 µM
21. O/N=C(\c1ccc(Cl)cc1Cl)c1ncc(C(F)(F)F)cc1Cl  19.6 µM
22. COc1ccc(C(CCNC(C)c2ccccc2)c2ccc(F)cc2)cc1 (configuration not stated)  20.6 µM
23. CCOC(=O)c1c(-c2ccccc2)oc2cc(Br)c(O)cc12  20.6 µM
24. O=S(=O)(c1ccc(N2CCC(c3ccc(Cl)cc3)=N2)cc1)N(CCO)CCO  20.7 µM
25. COC(=O)c1cc(C)[nH]c2c(C)cc3nc4ccccc4c3c12  21 µM
26. COc1cc(C(=O)O/N=C(\N)Cc2ccc([N+](=O)[O-])cc2)cc(OC)c1OC  22.3 µM
27. CCOc1ccc(NC(=O)c2cccc3c2C(=O)N(Cc2cccnc2)C3)cc1  22.8 µM
28. COC(=O)c1cc(NC(=S)Nc2cc(Cl)cc(Cl)c2)cc(C(=O)OC)c1  23 µM
29. Cc1nn(Cc2ccc(Cl)cc2)c(C)c1NC(=O)c1noc2c1CCCCC2  23.5 µM
30. N=c1c2c(-c3ccccc3)c(-c3ccccc3)n(Cc3ccccc3)c2ncn1CCO  23.8 µM
31. Cc1ccc(N2C(=O)CC(Sc3cccs3)C2=O)cc1 (configuration not stated)  24 µM
32. O=C(/C=C/c1ccccc1)CC(O)(c1ccccc1)C(F)(F)F (configuration not stated)  24.2 µM
33. CCNC(=S)NNC(=O)c1cc(-c2cc(C)ccc2C)nc2ccccc12  24.3 µM
34. CCn1c(SCc2c(F)cccc2Cl)nnc1-c1ccco1  24.3 µM
35. O=C(COc1ccc(Cl)cc1Cl)Nc1ccc(S(=O)(=O)NC2=NCCCCC2)cc1  24.5 µM
36. CCSc1ccc2c(c1)N(CCCN1CCN(C)CC1)c1ccccc1S2  24.9 µM
37. O=C(CN1CCN(S(=O)(=O)c2ccc(Cl)cc2)CC1)Nc1ccc2c(c1)CCC2  25.3 µM
38. N#Cc1ccccc1Cn1c(=O)n(C2CCCC2)c(=O)c2ccccc21  25.4 µM
39. Cc1ccc2nc(C)c(C(=O)N/N=C/c3cccc([N+](=O)[O-])c3)cc2c1  25.8 µM
40. CCc1cccc(NC(=O)CS(=O)Cc2nc(-c3ccc(C)cc3)oc2C)c1 (configuration not stated)  27 µM
41. Cc1cc(Nc2nc(Cl)c(Cl)cc2Cl)n(-c2ccccc2)n1  27.1 µM
42. O=c1c2[nH]c3ccc(F)cc3c2nc2n1CCS2  27.8 µM
43. Cc1ccccc1SCC(=O)Nc1cc(C(F)(F)F)ccc1N1CCOCC1  28.4 µM
44. COc1cc(/C=N/N=C2/C(=O)Nc3ccccc32)cc(OC)c1O  30.1 µM
45. CCCC(=O)NC(=S)Nc1ccc(Cl)cn1  30.1 µM
46. Cc1cccc(/C=C2\Oc3cc(OS(C)(=O)=O)ccc3C2=O)c1  31.9 µM
47. O=C1CC(SCc2nc3ccccc3[nH]2)C(=O)N1c1ccc(F)c(Cl)c1 (configuration not stated)  32.1 µM
48. COc1ccc(C)cc1NC(=O)NCCC1=CCCCC1  32.2 µM
49. O=[N+]([O-])c1cccc(NC(=S)NCCc2ccccc2)c1  32.8 µM
50. Oc1c(Cl)cc(Cl)cc1CNc1ccc(Br)cn1  33.2 µM
51. CC(C)(O)[C@H]1O[C@H]2CC[C@@]3(C)[C@@](O)(CC[C@H]4Cc5c([nH]c6ccccc56)[C@@]43C)C2=CC1=O  33.5 µM
52. COc1ccc(C(=O)/C=C/c2ccccc2)c(O)c1  34.2 µM
53. COc1ccccc1N1CCN(C(=O)c2cc3sccc3n2C)CC1  34.6 µM
54. COc1cccc(/C=C2\N=C(C3CCCCC3)OC2=O)c1OC  36.3 µM
55. Cc1c(C(=O)N2CCc3ccccc3C2)sc2nc(-c3ccccc3)cn12  37.2 µM
56. N/C(CCS(=O)(=O)c1ccc(Cl)cc1)=N\OC(=O)c1ccccc1C(F)(F)F  37.5 µM
57. COc1ccc(OCC(=O)O/N=C(\N)Cc2ccc(Cl)cc2)cc1  38.4 µM
58. Cc1c(C(=O)N2CCN(c3ccc(C(F)(F)F)cn3)CC2)oc2ccccc12  41.6 µM
59. N#Cc1c(N)nc(SCC(=O)C23CC4CC(CC(C4)C2)C3)c(C#N)c1-c1ccc(Cl)cc1  41.6 µM
60. C/C(=N\N=c1/sc2ccccc2n1C)c1ccccn1  45.7 µM
61. CC1CCN(S(=O)(=O)c2ccc(NC(=O)Cc3cccs3)cc2)CC1  46.5 µM
62. Cc1nc2scc(C)n2c(=O)c1S(=O)(=O)N1CCN(c2cccc(C(F)(F)F)c2)CC1  47.3 µM
63. Cc1cccc(/C(N)=N/OC(=O)COc2ccc(Cl)cc2)c1  48.4 µM
64. O=C(CCNc1ccc(Cc2ccncc2)cc1)c1cccc([N+](=O)[O-])c1  49.2 µM
65. CCOC(=O)c1ccc(N2C(=O)CC(N3CCC(Nc4ccc(F)cc4)CC3)C2=O)cc1 (configuration not stated)  55 µM
66. CCOC(=O)c1ccc(NC(=O)c2cccc3c2C(=O)N(CC2CCCO2)C3)cc1 (configuration not stated)  55.1 µM
67. COc1ccc(Cc2n[nH]c(=S)n2NC(=O)Nc2ccc(Cl)c(Cl)c2)cc1  56.5 µM
68. Cc1ccc(F)c(NC(=O)c2c(-c3ccccc3)noc2C)c1  58.6 µM
69. Oc1ccccc1-c1nc(NCc2cccnc2)c2ccccc2n1  60.5 µM
70. CCOc1ccccc1N1CCN(C(=O)Nc2ccc(F)c(Cl)c2)CC1  60.6 µM
71. CCCN(Cc1ccccc1)C(=S)Nc1cccc(C(F)(F)F)c1  66.1 µM
72. Cc1cc(C)cc(NC(=O)c2ccc(Cn3nc(C)c(Cl)c3C)o2)c1  68.7 µM
73. Cc1ccc(OCCOc2cccc(Br)c2)c([N+](=O)[O-])n1  69.2 µM
74. O=C(Nc1ccccc1Cl)C(Cl)C(=O)c1ccccc1 (configuration not stated)  70.1 µM
75. Cc1nn(C)c(C(=O)NC(=S)Nc2ccc([N+](=O)[O-])cc2)c1Cl  74.5 µM
76. O=C(Nc1cccc(C(F)(F)F)c1)N1CCC(c2nc(-c3ccc(F)cc3)no2)CC1  74.7 µM
77. Cc1cc(C)cc(OCC(=O)N2N=C(C(F)(F)F)CC2(O)C(C)(C)C)c1 (configuration not stated)  77.8 µM
78. CCCCOc1cccc(-c2cc(C(=O)NNC(=S)NCC)c3ccccc3n2)c1  89.3 µM
79. Cc1ccc(O)c(-c2cc(-c3cccc(F)c3)n[nH]2)c1  97.9 µM

For Cc1ccc2cc3cc(C(=O)NCCCN4CCc5ccccc5C4)oc3nc2c1, the IC50 was > 100 µM (inactive).
For COC(=O)c1cccc(Nc2cc(C)nc(-c3ccccc3O)n2)c1, the IC50 was > 100 µM (inactive).
O=C(c1cccs1)c1c[nH]cc1-c1ccccc1 was tested, and the IC50 was > 100 µM (inactive).
